In patent publication US11957680B2, “Pyruvate kinase activators for use in treating blood disorders” (Agios Pharmaceuticals, Inc., priority 2017, dated 2024):

Columns and labels:
PKR K410E = PKR K410E (Homo sapiens, UniProt P30613, K410E); assay: PKR mutant assay (K410E), AC50, LDH/NADH-coupled, absorbance at 340 nm; assay type: biochemical; conditions: for AC50: Table 2, enzyme assay; for EC50: Table 4, AC50, enzyme assay
Summary of the method: (§1)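 Wild-type or mutant PKR (40-400 ng/well) was preincubated with compound for 60 min at room temperature in 100 mM KCl, 50 mM Tris pH 7.5, 5 mM MgCl2, 1 mM DTT, 0.03% BSA with PEP (0.1-0.5 mM), 180 μM NADH and 0.5 units LDH. ADP (0.2-1.65 mM) started the reaction, followed at 340 nm.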

wild type PKR [1] = target: T1, wild type PKR (Homo sapiens, UniProt P30613); assay: Cell based ATP assay in purified red blood cells (Cell-Titer-Glo); design: endogenous in cells; host or cells: purified red blood cells from healthy volunteers; conditions: overnight at 37° C., ATP levels; for AC50 / Cell based ATP assay AC50: Table 2, RBCs
Summary of the method: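 RBCs from healthy human donors' K2EDTA blood were leukocyte-depleted by filtration and resuspended in AGAM (PBS, 1% glucose, adenine, mannitol). Cells at 1×10^7 cells/mL were incubated overnight at 37 °C with serially diluted compound at 0.1% DMSO, and ATP was read by Cell-Titer-Glo luminescence.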

wild type PKR [2] = target: T1, wild type PKR; assay: PKR (wild type) enzyme AC50 assay, LDH/NADH-coupled, absorbance at 340 nm; assay type: biochemical; conditions: for AC50 / PKR WT AC50: Table 2, enzyme assay; for AC50: read-out: PKR WT AC50; for EC50: read-out: PKR WT
Summary of the method: as §1

PKR R510Q = PKR R510Q (Homo sapiens, UniProt P30613, R510Q); assay: PKR mutant assay (R510Q), AC50, LDH/NADH-coupled, absorbance at 340 nm; assay type: biochemical; conditions: for AC50 / PK R510Q AC50: Table 2, enzyme assay; for AC50: read-out: PK R510Q AC50; for EC50: Table 4, AC50, enzyme assay, read-out: PK R510Q
Summary of the method: as §1

T1 sequence (P30613 whole entry): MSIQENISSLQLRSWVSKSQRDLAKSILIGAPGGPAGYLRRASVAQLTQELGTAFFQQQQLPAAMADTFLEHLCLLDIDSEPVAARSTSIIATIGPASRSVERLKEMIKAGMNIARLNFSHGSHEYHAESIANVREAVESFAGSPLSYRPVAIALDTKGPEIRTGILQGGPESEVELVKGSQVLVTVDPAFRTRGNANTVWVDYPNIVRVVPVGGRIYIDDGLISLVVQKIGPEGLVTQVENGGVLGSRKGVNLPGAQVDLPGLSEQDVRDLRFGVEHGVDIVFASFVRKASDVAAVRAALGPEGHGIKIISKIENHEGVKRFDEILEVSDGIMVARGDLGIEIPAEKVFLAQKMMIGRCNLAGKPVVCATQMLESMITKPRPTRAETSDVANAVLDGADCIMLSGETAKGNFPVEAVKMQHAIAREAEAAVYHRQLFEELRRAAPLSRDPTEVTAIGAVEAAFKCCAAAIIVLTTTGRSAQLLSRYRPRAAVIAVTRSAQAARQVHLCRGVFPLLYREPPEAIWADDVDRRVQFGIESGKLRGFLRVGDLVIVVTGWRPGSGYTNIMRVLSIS
Chain of PKR K410E (P30613 whole entry K410E): as the sequence (P30613 whole entry) above, with K410E counted along it
Chain of PKR R510Q (P30613 whole entry R510Q): as the sequence (P30613 whole entry) above, with R510Q counted along it

AC50 (PKR K410E)	AC50 (wild type PKR [1])	AC50 (wild type PKR [2])	AC50 (PKR R510Q)	EC50 (PKR K410E)	EC50 (wild type PKR [1]; Table 4, AC50, RBCs)	EC50 (wild type PKR [2]; Table 4, AC50, enzyme assay)	EC50 (PKR R510Q)	SMILES	also measured
				< 300 nM	≤ 1000 nM	< 300 nM	< 300 nM	Cn1c2nc(Cc3cscn3)sc2c2cnn(Cc3cccc4[nH]ncc34)c(=O)c21 [Compound 227]	
				< 300 nM	≤ 1000 nM	< 300 nM	< 300 nM	Cn1c2nc(C(C(N)=O)c3cc[nH]n3)sc2c2cnn(Cc3cccc4[nH]ncc34)c(=O)c21 (centres unmarked) [Compound 212]	
				< 300 nM	≤ 1000 nM	< 300 nM	< 300 nM	Cn1c2nc(Cc3n[nH]cc3F)sc2c2cnn(Cc3ccccc3)c(=O)c21 [Compound 382]	
				< 300 nM	> 1000 nM	< 300 nM	301 to 800 nM	Cn1c2nc(Cc3nnco3)sc2c2cnn(Cc3cccc4[nH]ncc34)c(=O)c21 [Compound 221]	
< 300 nM	≤ 1000 nM	301 to 800 nM	< 300 nM					Cn1c2nc(Cc3ccc4cn[nH]c4c3)sc2c2cnn(Cc3cccc4[nH]ncc34)c(=O)c21 [Compound 156]	
< 300 nM	> 1000 nM	< 300 nM	< 300 nM					Cn1c2nc(Cc3cccc4[nH]ncc34)sc2c2cnn(Cc3cccc4[nH]ncc34)c(=O)c21 [Compound 143]	
				> 800 nM	> 1000 nM	> 800 nM	> 800 nM	Cn1c2nc(Cc3csc(C(N)=O)n3)sc2c2cnn(Cc3cccc4[nH]ncc34)c(=O)c21 [Compound 206]	
				< 300 nM	≤ 1000 nM	< 300 nM	< 300 nM	Cn1c2nc(Cc3nc[nH]n3)sc2c2cnn(Cc3cccc4[nH]ncc34)c(=O)c21 [Compound 230]	
< 300 nM	≤ 1000 nM	< 300 nM	< 300 nM					Cn1c2nc(C(C)(O)c3cc[nH]n3)sc2c2cnn(Cc3cccc4[nH]ncc34)c(=O)c21 (centres unmarked) [Compound 162]	
				> 800 nM			< 300 nM	O=c1c2c(cnn1Cc1ccccc1)c1sc(Cc3cc[nH]n3)nc1n2Cc1ccccc1 [Compound 407]	Cell based ATP assay (wild type PKR [1]; Table 4, AC50, RBCs): No Fit; PKR WT (wild type PKR [2]; Table 4, AC50, enzyme assay): No Fit
				< 300 nM	≤ 1000 nM	< 300 nM	< 300 nM	Cn1c2nc(Cc3cnn[nH]3)sc2c2cnn(Cc3cccc4[nH]ncc34)c(=O)c21 [Compound 217]	
< 300 nM	≤ 1000 nM	< 300 nM	< 300 nM					Cn1c2nc(Cc3cccc(=O)[nH]3)sc2c2cnn(Cc3cccc4[nH]ncc34)c(=O)c21 [Compound 170]	
				< 300 nM	≤ 1000 nM	< 300 nM	< 300 nM	Cn1c2nc(Cn3cccn3)sc2c2cnn(Cc3cccc4[nH]ncc34)c(=O)c21 [Compound 292]	
				< 300 nM	≤ 1000 nM	< 300 nM	< 300 nM	Cn1c2nc(Cc3cc[nH]n3)sc2c2cnn(CCc3cscn3)c(=O)c21 [Compound 401]	
				301 to 800 nM	≤ 1000 nM	301 to 800 nM	> 800 nM	COc1ncc(Cc2nc3c(s2)c2cnn(Cc4cccc5[nH]ncc45)c(=O)c2n3C)cn1 [Compound 207]	
				< 300 nM	≤ 1000 nM	< 300 nM	< 300 nM	Cn1c2nc(Cc3cc(Cl)[nH]n3)sc2c2cnn(Cc3cccc4[nH]ncc34)c(=O)c21 [Compound 233]	
< 300 nM	≤ 1000 nM	301 to 800 nM	301 to 800 nM					Cn1c2nc(C(N)=O)sc2c2cnn(Cc3csc(N)n3)c(=O)c21 [Compound 146]	
				< 300 nM	≤ 1000 nM	< 300 nM	< 300 nM	COc1ncccc1Cc1nc2c(s1)c1cnn(Cc3cccc4[nH]ncc34)c(=O)c1n2C [Compound 219]	
				< 300 nM	≤ 1000 nM	< 300 nM	< 300 nM	Cn1c2nc(Cc3cc[nH]n3)sc2c2cnn(Cc3cccc4[nH]cnc34)c(=O)c21 [Compound 278]	
				< 300 nM	≤ 1000 nM	< 300 nM	< 300 nM	Cn1c2nc(Cc3cscn3)sc2c2cnn(Cc3ccccc3)c(=O)c21 [Compound 270]	
< 300 nM	≤ 1000 nM	< 300 nM	< 300 nM					Cc1cccc(Cc2nc3c(s2)c2cnn(Cc4cccc5[nH]ncc45)c(=O)c2n3C)n1 [Compound 159]	
				> 800 nM	> 1000 nM	> 800 nM	> 800 nM	CC(=O)c1cccc(CC(c2cc[nH]n2)c2nc3c(s2)c2cnn(Cc4cccc(C(C)=O)c4)c(=O)c2n3C)c1 (centres unmarked) [Compound 192]	
> 800 nM	> 1000 nM	> 800 nM	> 800 nM					Cn1c2nc(C3(c4ccccc4)CC3)sc2c2cnn(Cc3cccc4[nH]ncc34)c(=O)c21 [Compound 140]	

Second part, the compound before the results:

SMILES	AC50 (PKR K410E)	AC50 (wild type PKR [1])	AC50 (wild type PKR [2])	AC50 (PKR R510Q)	EC50 (PKR K410E)	EC50 (wild type PKR [1]; Table 4, AC50, RBCs)	EC50 (wild type PKR [2]; Table 4, AC50, enzyme assay)	EC50 (PKR R510Q)	also measured
Cn1c2nc(C#N)sc2c2cnn(Cc3cccc4[nH]ncc34)c(=O)c21 [Compound 84]	301 to 800 nM	> 1000 nM	< 300 nM	301 to 800 nM					
Cc1nc2c(s1)c1cnn(Cc3ccc4[nH]cnc4c3)c(=O)c1n2C [Compound 73]	301 to 800 nM	> 1000 nM	> 800 nM	301 to 800 nM					
COc1cccc(Cn2ncc3c4sc(Cc5ccc(C#N)cc5)nc4n(C)c3c2=O)c1 [Compound 64]	< 300 nM	≤ 1000 nM	< 300 nM	< 300 nM					
Cn1c2nc([S+](C)[O-])sc2c2cnn(Cc3ccc(C(N)=O)cc3)c(=O)c21 (centres unmarked) [Compound 98]	> 800 nM	> 1000 nM							PKR WT AC50 (wild type PKR [2]): No Fit; PK R510Q AC50 (PKR R510Q): No Fit
Cn1c2nc(Cc3cccc(C(N)=O)c3)sc2c2cnn(Cc3cccc4[nH]ncc34)c(=O)c21 [Compound 100]	< 300 nM	≤ 1000 nM	< 300 nM	< 300 nM					
Cc1nc2c(s1)c1cnn(Cc3ccc4cc[nH]c4c3)c(=O)c1n2C [Compound 60]	< 300 nM	≤ 1000 nM	< 300 nM	< 300 nM					
Cn1c2nc(C(c3cccc4[nH]ncc34)S(=O)(=O)c3ccccc3)sc2c2cnn(Cc3cccc4[nH]ncc34)c(=O)c21 (centres unmarked) [Compound 133]	> 800 nM	> 1000 nM	> 800 nM	> 800 nM					
CSc1nc2c(s1)c1cnn(Cc3cccc(C(C)(C)O)c3)c(=O)c1n2C [Compound 85]	301 to 800 nM	≤ 1000 nM	< 300 nM	< 300 nM					
Cc1nc2c(s1)c1cnn(Cc3ccc([N+](=O)[O-])cc3)c(=O)c1n2C [Compound 48]	> 800 nM			> 800 nM					Cell based ATP assay AC50 (wild type PKR [1]): No Fit; PKR WT AC50 (wild type PKR [2]): No Fit
COc1cccc(Cn2ncc3c4sc(C(F)(F)c5ccccc5)nc4n(C)c3c2=O)c1 [Compound 108]	< 300 nM	≤ 1000 nM	< 300 nM	< 300 nM					
Cn1c2nc(Nc3ccccc3)sc2c2cnn(Cc3cccc4[nH]ncc34)c(=O)c21 [Compound 135]	> 800 nM		> 800 nM						Cell based ATP assay AC50 (wild type PKR [1]): No Fit; PK R510Q AC50 (PKR R510Q): No Fit
Cn1c2nc(C(N)=O)sc2c2cnn(Cc3cccc4[nH]ncc34)c(=O)c21 [Compound 82]	301 to 800 nM	> 1000 nM	< 300 nM	301 to 800 nM					
Cn1c2nc([S+](C)[O-])sc2c2cnn(Cc3cnc(N)s3)c(=O)c21 (centres unmarked) [Compound 101]	> 800 nM	> 1000 nM	> 800 nM	> 800 nM					
CC(=O)c1cccc(Cn2ncc3c4sc(C)nc4n(C)c3c2=O)c1 [Compound 56]	< 300 nM	> 1000 nM	301 to 800 nM	< 300 nM					
COc1cccc(Cn2ncc3c4sc(OC)nc4n(C)c3c2=O)c1 [Compound 22]	< 300 nM	> 1000 nM	< 300 nM	< 300 nM					
COc1cccc(Cn2ncc3c4sc(C(F)(F)F)nc4n(C)c3c2=O)c1 [Compound 53]	< 300 nM	> 1000 nM	< 300 nM	< 300 nM					
CCOC(=O)c1cccc(Cn2ncc3c4sc(C)nc4n(C)c3c2=O)c1 [Compound 10]	> 800 nM		> 800 nM	> 800 nM					Cell based ATP assay AC50 (wild type PKR [1]): No Fit
Cc1nc2c(s1)c1cnn(Cc3cccc(CN)c3)c(=O)c1n2C [Compound 58]	< 300 nM	> 1000 nM	< 300 nM	< 300 nM					
Cn1c2nc([S+](C)[O-])sc2c2cnn(Cc3cccc(C(C)(C)O)c3)c(=O)c21 (centres unmarked) [Compound 87]	< 300 nM	≤ 1000 nM	< 300 nM	301 to 800 nM					
Cn1c2nc(Cc3ccc(C#N)cc3)sc2c2cnn(Cc3cccc4[nH]ncc34)c(=O)c21 [Compound 93]	> 800 nM	> 1000 nM	> 800 nM	> 800 nM					
CC(c1ccccc1)c1nc2c(s1)c1cnn(Cc3cccc4[nH]ncc34)c(=O)c1n2C (centres unmarked) [Compound 119]	< 300 nM	≤ 1000 nM	< 300 nM	< 300 nM					
